In patent US20240117402A1, “METHODS FOR (POLY) PEPTIDE TANDEM LIGATION AND CYCLIZATION” (Nanyang Technological University, priority 2021, published 2024):
Where no end group is shown, it is not given here.

What was measured:
butelase-1 [1] = assay: Butelase-1-mediated intermolecular peptide ligation kinetics (HPLC); type: biochemical; details: for Km / kcat: Butelase-1, limiting substrate 50-800 μM, partner peptide constant
Method: (§1) FIG. 3. Kinetic studies on VyPAL2- and butelase 1-catalyzed intermolecular ligations. A) Peptide 1 (SEQ ID NO:7) containing the C-terminal NHV sequence was used at varying concentrations (50 — 800 μM) to react with peptide 2 (SEQ ID NO:8) at constant concentration (1 mM); B) Peptide 4 (SEQ ID NO:9) at a constant concentration (1.5 mM) was reacted with the GF-peptide 5 (SEQ ID NO:10) at varying concentrations (50-800 μM). C) Peptide 2 at a constant concentration (1.5 mM) was reacted with the -NGF peptide 7 (SEQ ID NO:11) at varying concentrations (50-800 μM). The ligation product 3 or 6 was confirmed by ESI-MS. The reaction rates were calculated from the consumption of the limiting substrate 1, 5 or 7. Initial rate (V0) at different concentrations of the limiting substrate were used for Michaelis-Menten curve plotting. For each kinetic calculation, a lineweaver-Burk plot was also used to confirm the analysis.
(§2) PAL enzymes have been used extensively for protein single-site labeling and macrocyclization. However, using two PALs of different substrate specificity for bio-orthogonal and dual ligation remains unexplored. […] To determine the differences quantitatively, firstly the kinetics of VyPAL2 and butelase-1 toward peptide 1 or 7 which has a C-terminal NHV or NGF tripeptide motif respectively were studied (Table 1). The nucleophile substrate, used at a constant concentration, was peptide 2 which contains an N-terminal GI dipeptide motif. Reverse-phase analytical HPLC was used to monitor and quantify the ligation reaction. […] Similarly, kinetics of the two ligases towards a GF-starting nucleophile substrate, peptide 5, were also examined.
(§3) In this case, the acyl substrate, now kept at a constant concentration for the kinetic study, was peptide 4 which contains NGL at the C-terminus, a favorable motif for both VyPAL2 and butelase-1. It was shown that VyPAL2 has 5-fold catalytic efficiency than butelase-1 towards the GF-peptide substrate 5 (Table 1 and FIG. 3). In summary, the kinetic studies confirm the differential activities of butelase-1 and VyPAL2 toward certain substrate sequences, which provide strong support for a two-PAL, bio-orthogonal tandem ligation scheme for protein dual labeling.

VyPAL2 = assay: VyPAL2-mediated intermolecular peptide ligation kinetics (HPLC); type: biochemical, Viola yedoensis; details: for Km / kcat: VyPAL2, limiting substrate 50-800 μM; for Km: partner peptide constant; for kcat: partner peptide constant (1 with 2 at 1 mM; 5 with 4 at 1.5 mM; 7 with 2 at 1.5 mM); for catalytic activity/efficiency of VyPAL2 relative to butelase-1 towards the substrate: intermolecular ligation
VyPAL2, sequence (as listed by the source): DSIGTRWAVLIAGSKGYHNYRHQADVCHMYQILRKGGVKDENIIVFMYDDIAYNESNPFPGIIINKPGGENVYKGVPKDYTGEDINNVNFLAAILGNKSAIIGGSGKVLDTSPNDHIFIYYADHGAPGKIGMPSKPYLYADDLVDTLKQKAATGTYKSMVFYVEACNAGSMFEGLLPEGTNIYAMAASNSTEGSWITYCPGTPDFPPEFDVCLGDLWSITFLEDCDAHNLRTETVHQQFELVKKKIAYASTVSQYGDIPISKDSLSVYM
Method: as §1, §2, §3

butelase-1 [2] = assay: Butelase-1-catalyzed peptide cyclization (substrate screen, pH scan, kinetics); type: biochemical; details: 25 nM butelase-1, 5 μM peptide, pH 4.5, 25° C., 60 min
Method: FIG. 9. Screening of P1′-Asp peptides for cyclization by A) VyPAL2, B) butelase-1 and C) OaAEP1b. Quantitative summary of reaction yields of the reaction mixtures. For each reaction, 25 nM of the enzyme and 5 μM of the peptide substrate (21a-21i) were mixed and reacted at pH 4.5, 25° C. for 60 min. The positive control peptide 21j was performed at the same conditions except at pH 7.4. Average yields and SDs were calculated from experiments performed in triplicate. The amino acid sequence of the peptides used are set forth in SEQ ID Nos. 15-24.
FIG. 10. Ligation activity of three different ligases under different pH and substrate. Cyclization activity of A) VyPAL2, B) Butelase-1 or C) OaAEP1b towards substrate 21e-DSL and 21j-NGL; Fold difference was calculated using the cyclization rate of 21j-NGL divided by that of 21e-DSL. All the results were the average reaction rate at different pH in triplicate experiments based on MALDI-TOF analysis. Light grey text in the “Fold difference” axis marks to the maximum fold difference.
FIG. 11. Enzymatic activity of three different ligases on the cyclization reaction of P1-Asp peptide 21e-DSL or 21a-DGL and P1-Asn-peptide 21j-NGL. A) Scheme of PAL-mediated P1-Asp peptide cyclization; B) Enzymatic kinetics of VyPAL2 in cyclizing 21e-DSL at pH 4.5; C) Enzymatic kinetics of VyPAL2 in cyclizing 21e-DSL at pH 7.0; D) Enzymatic kinetics of OaAEP1b in cyclizing 21a-DGL at pH 5.5; E) Enzymatic kinetics of Butelase-1 in cyclizing 21e-DSL at pH 4.5. F) Scheme of PAL-mediated cyclization of peptide 21j-NGL; G). Enzymatic kinetics of butelase-1 in cyclizing […] at pH 4.5; H)
Enzymatic kinetics of VyPAL2 in cyclizing 21j-NSL at pH 4.5; I) Enzymatic kinetics of butelase-1 in cyclizing 21j-NSL at pH 7.4; J) Enzymatic kinetics of OaAEP1b in cyclizing 21j-NSL at pH 7.0. Sequences of peptides used are set forth in SEQ ID Nos. 15, 19, 24.
PALs recognize a tripeptide motif Asx-P1′-P2′ in the acyl donor substrate for their catalyzed ligation reactions. Because the formation of the acyl-enzyme thioester intermediate is the rate-limiting step, the leaving group P1′-P2′ also plays an important role in determining the catalytic kinetics of a particular 40 PAL-mediated reaction. Previous studies have determined Leu as a preferred P2′ residue. To identify the most favorable P1′ residues for PAL-catalyzed Asp-ligation, a panel of peptides (peptide 21a-21j) with C-terminal DXL and N-terminal GI motifs was synthesized and cyclization reactions performed. Peptide 21j with a C-terminal NGL, a P1-Asn peptide favored by VyPAL2, was used for comparison with the P1-Asp peptides 21a-21i. […] Meanwhile, the P1′ substrate specificities of the two other ligases - Butelase-1 and OaAEP1b - were also evaluated by using the same substrates 21a-21j.
A pH scan experiment with the other two ligases: butelase-1 and OaAEP1 b, for their cyclase activity on 21e and 21j was also conducted. […] In fact, the difference in reaction efficiency between 21j and 21e was about 950 times at pH 7.4 (FIG. 10). […] This makes VyPAL2 a more efficient ligase than butelase-1 for Asp-mediated protein modification.

butelase-1, sequence (as listed by the source): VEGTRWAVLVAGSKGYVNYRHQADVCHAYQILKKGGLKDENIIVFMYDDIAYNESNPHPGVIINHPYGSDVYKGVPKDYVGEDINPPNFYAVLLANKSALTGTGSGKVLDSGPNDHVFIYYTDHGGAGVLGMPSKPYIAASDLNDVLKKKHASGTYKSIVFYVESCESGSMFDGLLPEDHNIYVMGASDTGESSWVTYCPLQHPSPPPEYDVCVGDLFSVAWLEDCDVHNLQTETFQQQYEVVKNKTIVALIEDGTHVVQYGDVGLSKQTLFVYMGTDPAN

“Ac-KKLAVINGF (Ac-KKLAVINGF-NH2) [Peptide 7]” showed a Km (butelase-1 [1]) of 175 ± 1 µM, a kcat (butelase-1 [1]) of 0.46 ± 0.04 S^−1 and a Km (VyPAL2) of 155 ± 15 µM. The kcat (VyPAL2) was 1.10 ± 0.03 S^−1 and the “catalytic activity/efficiency of VyPAL2 relative to butelase-1 towards the substrate” value (VyPAL2) was “about 3 times”.
“Ac-KKLAVINHV (Ac-KKLAVINHV-NH2) [Peptide 1]” was tested, and the Km (butelase-1 [1]) was 85 ± 3 µM, the kcat (butelase-1 [1]) was 1.47 ± 0.04 S^−1 and the “catalytic activity of butelase-1 relative to VyPAL2 towards the substrate” value (butelase-1 [1]; intermolecular ligation) was “about 18 times”. For the same substance, the Km (VyPAL2) was 182 ± 6 µM and the kcat (VyPAL2) was 0.17 ± 0.01 S^−1.
GFGGIKA (GFGGIKA-NH2) [Peptide 5] was tested, and the Km (butelase-1 [1]) was 365 ± 3 µM, the kcat (butelase-1 [1]) was 1.55 ± 0.01 S^−1 and the Km (VyPAL2) was 424 ± 26 µM. For the same substance, the kcat (VyPAL2) was 8.29 ± 0.48 S^−1 and the “catalytic activity/efficiency of VyPAL2 relative to butelase-1 towards the substrate” value (VyPAL2) was 5 times.
“GISTKSIPPISYRDKL (GISTKSIPPISYRDKL-NH2) [Peptide 21g]” was tested, and the “substrate preference among P1-Asp peptides” value (butelase-1 [2]) was “slight preference”.
“GISTKSIPPISYRDLL (GISTKSIPPISYRDLL-NH2) [Peptide 21d]” was tested, and the “substrate preference among P1-Asp peptides” value (butelase-1 [2]) was “slight preference”.
